Laboratory results from PubChem BioAssay AID248 (DTP/NCI, 2004).
Several values for one entry are separate records, joined by “and”; a condition that tells them apart may be missing. Identical values can stand only once. Toxic doses and inconclusive results are not listed. Rule as the data show it: active = T/C of 150% or more; inactive = T/C below 125%.

System: L1210 leukemia ip in BDF1 mice, survival T/C
Assay: NCI In Vivo Anticancer Drug Screen. Data for tumor model L1210 Leukemia (intraperitoneal) in B6D2F1 (BDF1) mice
Conditions: endpoint: mean survival time, higher = longer survival
How it was run: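 Tumor cells were implanted, animals were treated, and survival was followed. The result divides the treated measurement by the vehicle-control measurement.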

[1] = dose: 50.0 mg/kg/injection, schedule: Q01DX001 (ip), vehicle: carboxymethylcellulose (CMC)
[2] = dose: 100.0 mg/kg/injection, schedule: Q01DX001 (ip), vehicle: carboxymethylcellulose (CMC)
[3] = dose: 200.0 mg/kg/injection, schedule: Q01DX001 (ip), vehicle: carboxymethylcellulose (CMC)
[4] = dose: 400.0 mg/kg/injection, schedule: Q01DX001 (ip), vehicle: carboxymethylcellulose (CMC)
[5] = dose: 100.0 mg/kg/injection, schedule: Q04DX003 (ip), vehicle: saline with Tween-80
[6] = dose: 100.0 mg/kg/injection, schedule: Q01DX001 (ip), vehicle: saline
[7] = dose: 100.0 mg/kg/injection, schedule: Q01DX009 (ip), vehicle: Klucel (hydroxypropylcellulose) (HPC)
[8] = dose: 200.0 mg/kg/injection, schedule: Q01DX009 (ip), vehicle: Klucel (hydroxypropylcellulose) (HPC)
[9] = dose: 100.0 mg/kg/injection, schedule: Q04DX002 (ip), vehicle: saline with Tween-80
[10] = dose: 200.0 mg/kg/injection, schedule: Q04DX002 (ip), vehicle: saline with Tween-80
[11] = dose: 400.0 mg/kg/injection, schedule: Q04DX002 (ip), vehicle: saline with Tween-80
[12] = dose: 200.0 mg/kg/injection, schedule: Q04DX003 (ip), vehicle: saline with Tween-80
[13] = dose: 400.0 mg/kg/injection, schedule: Q04DX003 (ip), vehicle: saline with Tween-80
[14] = dose: 200.0 mg/kg/injection, schedule: Q01DX001 (ip), vehicle: saline
[15] = dose: 400.0 mg/kg/injection, schedule: Q01DX009 (ip), vehicle: Klucel (hydroxypropylcellulose) (HPC)
[16] = dose: 25.0 mg/kg/injection, schedule: Q01DX009 (ip), vehicle: saline with Tween-80
[17] = dose: 50.0 mg/kg/injection, schedule: Q01DX009 (ip), vehicle: saline with Tween-80
[18] = dose: 100.0 mg/kg/injection, schedule: Q01DX009 (ip), vehicle: saline with Tween-80

Measured: T/C

O=C(c1ccc([N+](=O)[O-])cc1)C1NC1c1ccc([N+](=O)[O-])cc1 (stereo unspecified)
inactive: [1] 108 % of control | [2] 100 % of control | [3] 105 % of control | [4] 97 % of control

Cc1ccc(S(=O)(=O)OCC2CO2)cc1 (stereo unspecified)
inactive: dose: 100.0 mg/kg/injection, schedule: Q01DX009 (ip), vehicle: acetone 92 % of control | dose: 100.0 mg/kg/injection, schedule: Q04DX003 (ip), vehicle: acetone 92 % of control | dose: 200.0 mg/kg/injection, schedule: Q04DX003 (ip), vehicle: acetone 95 % of control | dose: 400.0 mg/kg/injection, schedule: Q01DX009 (ip), vehicle: acetone 87 % of control | dose: 400.0 mg/kg/injection, schedule: Q04DX003 (ip), vehicle: acetone 92 % of control

CSC(=S)N/N=C(\C)c1ccccn1
inactive: [5] 107 % of control

O=c1[nH]cnc2[nH]ncc12
inactive: dose: 50.0 mg/kg/injection, schedule: Q01DX001 (ip), vehicle: saline with Tween-80 95 % of control | dose: 69.0 mg/kg/injection, schedule: Q01DX015 (ip), vehicle: carboxymethylcellulose (CMC) 94 % of control | [2] 106 % of control | dose: 100.0 mg/kg/injection, schedule: Q01DX001 (ip), vehicle: saline with Tween-80 105 % of control | [6] 101 % of control | dose: 104.0 mg/kg/injection, schedule: Q01DX015 (ip), vehicle: carboxymethylcellulose (CMC) 95 % of control | dose: 156.0 mg/kg/injection, schedule: Q01DX015 (ip), vehicle: carboxymethylcellulose (CMC) 96 % of control | [3] 102 % of control | dose: 234.0 mg/kg/injection, schedule: Q01DX015 (ip), vehicle: carboxymethylcellulose (CMC) 94 % of control | dose: 351.0 mg/kg/injection, schedule: Q01DX015 (ip), vehicle: carboxymethylcellulose (CMC) 95 % of control

COc1ccc([N+](=O)[O-])cc1NC(=O)Nc1ccc(Nc2ccccc2)cc1
inactive: dose: 50.0 mg/kg/injection, schedule: Q01DX009 (ip), vehicle: Klucel (hydroxypropylcellulose) (HPC) 97 % of control | [7] 94 % of control | [8] 90 % of control

COc1cc(CC(C)N)cc(OC)c1OC (stereo unspecified)
inactive: dose: 50.0 mg/kg/injection, schedule: Q01DX009 (ip), vehicle: saline 110 % of control | dose: 100.0 mg/kg/injection, schedule: Q01DX009 (ip), vehicle: saline 108 % of control | dose: 200.0 mg/kg/injection, schedule: Q01DX009 (ip), vehicle: saline 103 % of control

CCS(=O)(=O)N1CCCCC1C (stereo unspecified)
inactive: [9] 93 % of control | [10] 99 % of control | [11] 96 % of control

CC1c2ccccc2C(C)c2c1cc(F)c1ccccc21 (stereo unspecified)
inactive: dose: 100.0 mg/kg/injection, schedule: Q04DX002 (ip), vehicle: other 115 % of control | dose: 200.0 mg/kg/injection, schedule: Q04DX002 (ip), vehicle: other 93 % of control | dose: 400.0 mg/kg/injection, schedule: Q04DX002 (ip), vehicle: other 101 % of control

CSc1nc(Cl)cc(/N=C/N(C)C)n1
inactive: [5] 95 % of control | [12] 115 % of control | [13] 111 % of control

Cc1ccc(C(=O)CCCN2CCOCC2)c(C)c1
inactive: dose: 5.0 mg/kg/injection, schedule: Q01DX001 (ip), vehicle: saline 105 % of control | dose: 10.0 mg/kg/injection, schedule: Q01DX001 (ip), vehicle: saline 97 % of control | dose: 20.0 mg/kg/injection, schedule: Q01DX001 (ip), vehicle: saline 94 % of control | dose: 40.0 mg/kg/injection, schedule: Q01DX001 (ip), vehicle: saline 108 % of control | dose: 80.0 mg/kg/injection, schedule: Q01DX001 (ip), vehicle: saline 100 % of control | [14] 95 % of control

Clc1ccc(Sc2ccc(Br)cc2)cc1
inactive: [1] 103 % of control | [2] 101 % of control | [3] 103 % of control | [4] 101 % of control

CCCCCCCC(=O)Nc1c(C)cc(C)cc1C
inactive: [5] 95 % of control | [12] 92 % of control | [13] 93 % of control

CSc1ccc(NC(=O)Nc2ccc(Cl)cc2Cl)cc1
inactive: [7] 93 % of control | [8] 88 % of control | [15] 88 % of control

Cc1ccc(NC(=O)COc2ccc(Cl)cc2)cc1
inactive: dose: 100.0 mg/kg/injection, schedule: Q04DX002 (ip), vehicle: saline + alcohol 103 % of control | dose: 200.0 mg/kg/injection, schedule: Q04DX002 (ip), vehicle: saline + alcohol 100 % of control | dose: 400.0 mg/kg/injection, schedule: Q04DX002 (ip), vehicle: saline + alcohol 92 % of control

CN(C)C1=CC(=N/S(=O)(=O)c2ccccc2)/C(N(C)C)=CC/1=N/S(=O)(=O)c1ccccc1
inactive: [5] 88 % of control | [12] 90 % of control | [13] 87 % of control

S=C(SC(=S)N(C1CCCCC1)C1CCCCC1)N(C1CCCCC1)C1CCCCC1
inactive: [16] 92 % of control | [17] 90 % of control | [18] 86 % of control and 89 % of control

O=C1NC2(C=CCCC2)C(O)(c2ccccc2)C12CCCCC2 (stereo unspecified)
inactive: dose: 75.0 mg/kg/injection, schedule: Q01DX001 (ip), vehicle: saline 95 % of control | dose: 150.0 mg/kg/injection, schedule: Q01DX001 (ip), vehicle: saline 86 % of control | dose: 300.0 mg/kg/injection, schedule: Q01DX001 (ip), vehicle: saline 89 % of control

O/N=C/c1ccco1
inactive: [9] 100 % of control | [10] 103 % of control | [11] 103 % of control

C=CCNC(=O)C1C2C=CC(C2)C1C(=O)O (stereo unspecified)
inactive: [5] 98 % of control | [12] 104 % of control | [13] 98 % of control

Cc1cccc(-c2nnc(-c3cccc(C)n3)o2)n1
inactive: dose: 50.0 mg/kg/injection, schedule: Q04DX002 (ip), vehicle: saline with Tween-80 92 % of control | [9] 95 % of control | [10] 92 % of control | [11] 87 % of control

O=C(CSc1ccc([N+](=O)[O-])cc1)c1ccc(Br)cc1
inactive: [6] 87 % of control | dose: 100.0 mg/kg/injection, schedule: Q04DX003 (ip), vehicle: saline 95 % of control | [14] 87 % of control | dose: 200.0 mg/kg/injection, schedule: Q04DX003 (ip), vehicle: saline 90 % of control | dose: 400.0 mg/kg/injection, schedule: Q01DX001 (ip), vehicle: saline 94 % of control | dose: 400.0 mg/kg/injection, schedule: Q04DX003 (ip), vehicle: saline 90 % of control

O=C1CC(c2ccc(O)cc2)CC(=O)C1C(C1CC=CCC1)N(CCCl)CCCl (stereo unspecified)
inactive: [7] 105 % of control and 104 % of control | dose: 100.0 mg/kg/injection, schedule: Q04DX003 (ip), vehicle: Klucel (hydroxypropylcellulose) (HPC) 103 % of control | [8] 105 % of control and 100 % of control | dose: 200.0 mg/kg/injection, schedule: Q04DX003 (ip), vehicle: Klucel (hydroxypropylcellulose) (HPC) 106 % of control and 104 % of control | [15] 110 % of control and 100 % of control | dose: 400.0 mg/kg/injection, schedule: Q04DX003 (ip), vehicle: Klucel (hydroxypropylcellulose) (HPC) 110 % of control and 101 % of control

Cc1ccc(S(=O)(=O)On2cccc2C#N)cc1
inactive: [16] 102 % of control | [17] 94 % of control and 96 % of control | [18] 98 % of control | dose: 200.0 mg/kg/injection, schedule: Q01DX009 (ip), vehicle: saline with Tween-80 97 % of control and 102 % of control

CC(C)CCNc1ccc(NCCC(C)C)cc1
inactive: dose: 12.5 mg/kg/injection, schedule: Q01DX009 (ip), vehicle: saline with Tween-80 100 % of control | dose: 12.5 mg/kg/injection, schedule: Q04DX003 (ip), vehicle: Klucel (hydroxypropylcellulose) (HPC) 104 % of control | [16] 100 % of control | dose: 25.0 mg/kg/injection, schedule: Q04DX003 (ip), vehicle: Klucel (hydroxypropylcellulose) (HPC) 96 % of control | [17] 96 % of control | dose: 50.0 mg/kg/injection, schedule: Q04DX003 (ip), vehicle: Klucel (hydroxypropylcellulose) (HPC) 96 % of control | dose: 75.0 mg/kg/injection, schedule: Q01DX009 (ip), vehicle: alcohol 86 % of control
